Data published in PubChem BioAssay AID2060900 (Molecular Pharmacology Branch, DTP, NCI, 2025).

Test system: 521955-158-R2-J5-PDC complex spheroids, viability
Assay: Anticancer human tumor 521955-158-R2-J5-PDC patient-derived pancreatic carcinoma cell line growth inhibition [RAS]
Conditions: for viability, T/C: stronger effect = lower value
In short: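 Multi-cell-type spheroids: tumor cells plus HUVEC endothelial cells and mesenchymal stem cells. RAS-pathway inhibitors were combined with targeted agents, each dosed in half-log steps down from clinical Cmax, or from 10 microM when Cmax was unknown.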

[1] = curve of first compound, second compound 0.000949 µM
[2] = curve of first compound, second compound 0.003 µM
[3] = curve of first compound, second compound 0.00949 µM
[4] = curve of first compound, second compound 0.03 µM
[5] = curve of first compound, second compound 0.0949 µM
[6] = curve of first compound, second compound 0.3 µM
[7] = second compound 0.000949 µM, first compound 0.0316 µM
[8] = second compound 0.000949 µM, first compound 0.1 µM
[9] = second compound 0.000949 µM, first compound 0.316 µM
[10] = second compound 0.000949 µM, first compound 1 µM
[11] = second compound 0.000949 µM, first compound 3.16 µM
[12] = second compound 0.000949 µM, first compound 10 µM
[13] = second compound 0.003 µM, first compound 0.0316 µM
[14] = second compound 0.003 µM, first compound 0.1 µM
[15] = second compound 0.003 µM, first compound 0.316 µM
[16] = second compound 0.003 µM, first compound 1 µM
[17] = second compound 0.003 µM, first compound 3.16 µM
[18] = second compound 0.003 µM, first compound 10 µM
[19] = second compound 0.00949 µM, first compound 0.0316 µM
[20] = second compound 0.00949 µM, first compound 0.1 µM
[21] = second compound 0.00949 µM, first compound 0.316 µM
[22] = second compound 0.00949 µM, first compound 1 µM
[23] = second compound 0.00949 µM, first compound 3.16 µM
[24] = second compound 0.00949 µM, first compound 10 µM
[25] = second compound 0.03 µM, first compound 0.0316 µM
[26] = second compound 0.03 µM, first compound 0.1 µM
[27] = second compound 0.03 µM, first compound 0.316 µM
[28] = second compound 0.03 µM, first compound 1 µM
[29] = second compound 0.03 µM, first compound 3.16 µM
[30] = second compound 0.03 µM, first compound 10 µM
[31] = second compound 0.0949 µM, first compound 0.0316 µM
[32] = second compound 0.0949 µM, first compound 0.1 µM
[33] = second compound 0.0949 µM, first compound 0.316 µM
[34] = second compound 0.0949 µM, first compound 1 µM
[35] = second compound 0.0949 µM, first compound 3.16 µM
[36] = second compound 0.0949 µM, first compound 10 µM
[37] = second compound 0.3 µM, first compound 0.0316 µM
[38] = second compound 0.3 µM, first compound 0.1 µM
[39] = second compound 0.3 µM, first compound 0.316 µM
[40] = second compound 0.3 µM, first compound 1 µM
[41] = second compound 0.3 µM, first compound 3.16 µM
[42] = second compound 0.3 µM, first compound 10 µM
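Further: compound exposure lasted seven days before the viability read.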
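Wherever viability, T/C is given: spheroids also contain HUVEC endothelial cells and mesenchymal stem cells as stroma.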

## CC(Nc1ccc2c(c1)OCCn1cc(N3C(=O)OCC3C(F)F)nc1-2)C(N)=O (stereo not drawn) + CCn1c(-c2cccnc2C(C)OC)c2c3cc(ccc31)N1CCOC(CC(NC(=O)C(C(C)C)N(C)C(=O)C3(F)CCN(C(=O)C#CC(C)(C)N(C)C)CC3)C(=O)N3CCCC(N3)C(=O)OCC(C)(C)C2)C1
[1]
  IC50: 131 nM
[2]
  IC50: < 31.6 nM
[3]
  IC50: < 31.6 nM
[4]
  IC50: < 31.6 nM
[5]
  IC50: < 31.6 nM
[6]
  IC50: < 31.6 nM
[7]
  viability, T/C: 63.1%
[8]
  viability, T/C: 46.7%
[9]
  viability, T/C: 34.7%
[10]
  viability, T/C: 27%
[11]
  viability, T/C: 83.6%
[12]
  viability, T/C: 17.9%
[13]
  viability, T/C: 59.7%
[14]
  viability, T/C: 36.6%
[15]
  viability, T/C: 32.3%
[16]
  viability, T/C: 23.8%
[17]
  viability, T/C: 93.3%
[18]
  viability, T/C: 16.3%
[19]
  viability, T/C: 41.8%
[20]
  viability, T/C: 46.3%
[21]
  viability, T/C: 31.9%
[22]
  viability, T/C: 26.3%
[23]
  viability, T/C: 108%
[24]
  viability, T/C: 15.6%
[25]
  viability, T/C: 49.8%
[26]
  viability, T/C: 44.2%
[27]
  viability, T/C: 33.9%
[28]
  viability, T/C: 30.8%
[29]
  viability, T/C: 70.1%
[30]
  viability, T/C: 13.9%
[31]
  viability, T/C: 39.1%
[32]
  viability, T/C: 33.6%
[33]
  viability, T/C: 28%
[34]
  viability, T/C: 22.4%
[35]
  viability, T/C: 74.8%
[36]
  viability, T/C: 13.6%
[37]
  viability, T/C: 39.1%
[38]
  viability, T/C: 32.6%
[39]
  viability, T/C: 27.3%
[40]
  viability, T/C: 24.9%
[41]
  viability, T/C: 53.5%
[42]
  viability, T/C: 12.8%

## CC(Nc1ccc2c(c1)OCCn1cc(N3C(=O)OCC3C(F)F)nc1-2)C(N)=O (stereo not drawn) + CCn1c(-c2cc(N3CCN(C)CC3)cnc2C(C)OC)c2c3cc(ccc31)-c1csc(n1)CC(NC(=O)C1CC1C)C(=O)N1CCCC(N1)C(=O)OCC(C)(C)C2
[1]
  IC50: < 31.6 nM
[2]
  IC50: < 31.6 nM
[3]
  IC50: < 31.6 nM
[4]
  IC50: < 31.6 nM
[5]
  IC50: < 31.6 nM
[6]
  IC50: < 31.6 nM
[7]
  viability, T/C: 31.7%
[8]
  viability, T/C: 24.1%
[9]
  viability, T/C: 21.9%
[10]
  viability, T/C: 13.8%
[11]
  viability, T/C: 14.3%
[12]
  viability, T/C: 11.4%
[13]
  viability, T/C: 32.7%
[14]
  viability, T/C: 22.1%
[15]
  viability, T/C: 20.1%
[16]
  viability, T/C: 13.7%
[17]
  viability, T/C: 8.65%
[18]
  viability, T/C: 7.85%
[19]
  viability, T/C: 31.2%
[20]
  viability, T/C: 21.7%
[21]
  viability, T/C: 11.8%
[22]
  viability, T/C: 8.38%
[23]
  viability, T/C: 7.16%
[24]
  viability, T/C: 4.66%
[25]
  viability, T/C: 12.8%
[26]
  viability, T/C: 10.3%
[27]
  viability, T/C: 11.4%
[28]
  viability, T/C: 3.73%
[29]
  viability, T/C: 6.17%
[30]
  viability, T/C: 1.25%
[31]
  viability, T/C: 7.65%
[32]
  viability, T/C: 6.24%
[33]
  viability, T/C: 4.21%
[34]
  viability, T/C: 1.25%
[35]
  viability, T/C: 5.01%
[36]
  viability, T/C: 1.25%
[37]
  viability, T/C: 10.2%
[38]
  viability, T/C: 6.36%
[39]
  viability, T/C: 5.9%
[40]
  viability, T/C: 3.16%
[41]
  viability, T/C: 3.15%
[42]
  viability, T/C: 0.45%

## O=C(c1ccc(F)c(F)c1Nc1ccc(I)cc1F)N1CC(O)([C@@H]2CCCCN2)C1 + C#Cc1c(F)ccc2cc(O)cc(-c3ncc4c(N5CC6CCC(C5)N6)nc(OCC56CCCN5CC(F)C6)nc4c3F)c12
Curve of first compound, second compound 0.0316 µM
  IC50: 13.9 nM
Curve of first compound, second compound 0.1 µM
  IC50: 9.71 nM
Curve of first compound, second compound 0.316 µM
  IC50: 5.09 nM
Curve of first compound, second compound 1 µM
  IC50: < 3.16 nM
Curve of first compound, second compound 3.16 µM
  IC50: < 3.16 nM
Curve of first compound, second compound 10 µM
  IC50: < 3.16 nM
Second compound 0.0316 µM, first compound 0.00316 µM
  viability, T/C: 57.3%
Second compound 0.0316 µM, first compound 0.01 µM
  viability, T/C: 53%
Second compound 0.0316 µM, first compound 0.0316 µM
  viability, T/C: 43.3%
Second compound 0.0316 µM, first compound 0.1 µM
  viability, T/C: 35.2%
Second compound 0.0316 µM, first compound 0.316 µM
  viability, T/C: 23.4%
Second compound 0.0316 µM, first compound 1 µM
  viability, T/C: 15.4%
Second compound 0.1 µM, first compound 0.00316 µM
  viability, T/C: 54.5%
Second compound 0.1 µM, first compound 0.01 µM
  viability, T/C: 54.2%
Second compound 0.1 µM, first compound 0.0316 µM
  viability, T/C: 34.3%
Second compound 0.1 µM, first compound 0.1 µM
  viability, T/C: 29.3%
Second compound 0.1 µM, first compound 0.316 µM
  viability, T/C: 20.1%
Second compound 0.1 µM, first compound 1 µM
  viability, T/C: 15%
Second compound 0.316 µM, first compound 0.00316 µM
  viability, T/C: 51.5%
Second compound 0.316 µM, first compound 0.01 µM
  viability, T/C: 47.6%
Second compound 0.316 µM, first compound 0.0316 µM
  viability, T/C: 38.4%
Second compound 0.316 µM, first compound 0.1 µM
  viability, T/C: 36%
Second compound 0.316 µM, first compound 0.316 µM
  viability, T/C: 19.1%
Second compound 0.316 µM, first compound 1 µM
  viability, T/C: 17%
Second compound 1 µM, first compound 0.00316 µM
  viability, T/C: 44.6%
Second compound 1 µM, first compound 0.01 µM
  viability, T/C: 43%
Second compound 1 µM, first compound 0.0316 µM
  viability, T/C: 38.6%
Second compound 1 µM, first compound 0.1 µM
  viability, T/C: 23.2%
Second compound 1 µM, first compound 0.316 µM
  viability, T/C: 14.4%
Second compound 1 µM, first compound 1 µM
  viability, T/C: 12.4%
Second compound 3.16 µM, first compound 0.00316 µM
  viability, T/C: 43.9%
Second compound 3.16 µM, first compound 0.01 µM
  viability, T/C: 41.9%
Second compound 3.16 µM, first compound 0.0316 µM
  viability, T/C: 27%
Second compound 3.16 µM, first compound 0.1 µM
  viability, T/C: 18.4%
Second compound 3.16 µM, first compound 0.316 µM
  viability, T/C: 10.9%
Second compound 3.16 µM, first compound 1 µM
  viability, T/C: 7.26%
Second compound 10 µM, first compound 0.00316 µM
  viability, T/C: 41.3%
Second compound 10 µM, first compound 0.01 µM
  viability, T/C: 29.1%
Second compound 10 µM, first compound 0.0316 µM
  viability, T/C: 27.2%
Second compound 10 µM, first compound 0.1 µM
  viability, T/C: 15.3%
Second compound 10 µM, first compound 0.316 µM
  viability, T/C: 2.76%
Second compound 10 µM, first compound 1 µM
  viability, T/C: 2.89%

## CCC(CC)c1cc(NC2CCC(N)C2)n2nccc2n1 (stereo not drawn) + CCn1c(-c2cccnc2C(C)OC)c2c3cc(ccc31)N1CCOC(CC(NC(=O)C(C(C)C)N(C)C(=O)C3(F)CCN(C(=O)C#CC(C)(C)N(C)C)CC3)C(=O)N3CCCC(N3)C(=O)OCC(C)(C)C2)C1
[1]
  IC50: 1900 nM
[2]
  IC50: 1910 nM
[3]
  IC50: 1960 nM
[4]
  IC50: 1930 nM
[5]
  IC50: 1730 nM
[6]
  IC50: 1700 nM
[7]
  viability, T/C: 93.9%
[8]
  viability, T/C: 92.6%
[9]
  viability, T/C: 104%
[10]
  viability, T/C: 122%
[11]
  viability, T/C: 6.03%
[12]
  viability, T/C: 9.22%
[13]
  viability, T/C: 94.6%
[14]
  viability, T/C: 108%
[15]
  viability, T/C: 106%
[16]
  viability, T/C: 116%
[17]
  viability, T/C: 5.99%
[18]
  viability, T/C: 6.76%
[19]
  viability, T/C: 113%
[20]
  viability, T/C: 97.7%
[21]
  viability, T/C: 116%
[22]
  viability, T/C: 117%
[23]
  viability, T/C: 7.29%
[24]
  viability, T/C: 6.73%
[25]
  viability, T/C: 99.2%
[26]
  viability, T/C: 101%
[27]
  viability, T/C: 105%
[28]
  viability, T/C: 117%
[29]
  viability, T/C: 8.41%
[30]
  viability, T/C: 5.64%
[31]
  viability, T/C: 83.1%
[32]
  viability, T/C: 75.6%
[33]
  viability, T/C: 97.4%
[34]
  viability, T/C: 100%
[35]
  viability, T/C: 6.48%
[36]
  viability, T/C: 6.71%
[37]
  viability, T/C: 84.9%
[38]
  viability, T/C: 75.4%
[39]
  viability, T/C: 88.1%
[40]
  viability, T/C: 88.6%
[41]
  viability, T/C: 9.96%
[42]
  viability, T/C: 5.87%

## CCn1c(-c2cccnc2C(C)OC)c2c3cc(ccc31)N1CCOC(CC(NC(=O)C(C(C)C)N(C)C(=O)C3(F)CCN(C(=O)C#CC(C)(C)N(C)C)CC3)C(=O)N3CCCC(N3)C(=O)OCC(C)(C)C2)C1 (stereo not drawn)
Compound 0.000949 µM
  viability, T/C: 101% [middle of 8 runs]
Compound 0.003 µM
  viability, T/C: 101% [middle of 8 runs]
Compound 0.03 µM
  viability, T/C: 94.8% [middle of 8 runs]
Compound 0.3 µM
  viability, T/C: 77.3% [middle of 8 runs]
Compound alone, run of 05/20/2024
  IC50: > 300 nM
